{"source": "patent US20230095026A1", "about": "“METHOD FOR STIMULATING AND INDUCING CHANGES IN ENVIRONMENT AROUND AGED SKIN CELLS” (AMOREPACIFIC CORPORATION, priority 2019, published 2023)", "key": {"[1]": {"system": "pigment-forming cells", "experiment": "Change in morphology and cell number of UVB-aged pigment-forming cells, SA-β-gal staining", "type": "cell-based, human", "protocol": "Subsequently, the cells were treated with a compound represented by Chemical Formula E (Sigma-Aldrich Co., Ltd.)."}, "[2]": {"system": "Fibroblast cells", "experiment": "Change in the number of UVB-aged fibroblast cells, SA-β-gal staining", "type": "cell-based, human"}}, "data": [{"smiles": "O=C(O)[C@]1(O)C[C@@H](O)[C@@H](O)[C@H](O)C1", "note": "[Chemical Formula E]", "values": [{"measurement": "number of cells", "setting": "[1]; UVB-aged pigment-forming cells treated with the compound, FIGS. 1 and 2", "value": "the number of cells increased again"}, {"measurement": "ratio of the number of the aged cells stained with SA-β-gal to the total number of cells", "setting": "[1]; UVB-aged pigment-forming cells, FIG. 3", "value": "decreased depending on the concentration"}, {"measurement": "number of cells", "setting": "[2]; UVB-aged fibroblasts treated with the compound, FIGS. 4 and 5", "value": "the number of cells increased again depending on the concentration"}, {"measurement": "ratio of the number of the aged cells stained with SA-β-gal to the total number of cells", "setting": "[2]; UVB-aged fibroblasts, FIG. 6", "value": "decreased depending on the concentration"}]}]}
